Results on three molecules are retold here after patent US6280768A, “Berberine alkaloids as a treatment for chronic protozoally induced diarrhea” (PRM Pharmaceuticals, Inc., priority 1997, dated 2001).

In one assay the test system is E.histolytica. As to the kind of experiment: In vitro growth inhibition of Entamoeba histolytica. The format is cell-based. The following applies: for activity at 30 µg/mL: 30 μg/ml; for activity at 125 µg/mL: 125 μg/ml; for activity at 500 µg/mL: 500 μg/ml; for activity at 1000 µg/mL: 1000 μg/ml. An excerpt: (§1) The protozoa tested were established strains of 3 extracellular protozoan parasites; (1) Giardia lamblia, (2) Trichomonas vaginalis, (3) Entamoeba histolytica, and the intracellular microsporidian parasite (4) Encephalitozoon intestinalis.
(§2) Culture conditions and media for (1)-(3) and methods for assaying drug susceptibility were as described in Katiyar, S K and Edlind T D, Enhanced Antiparasitic Activity of Lipophilic Tetracyclines: Role of Uptake, Antimicrob. Agents Chemother., vol. 35:2198-2202 (1991), incorporated herein by reference.
(§3) Cultures of the extracellular parasites were started from frozen stocks and passaged several times over a 2-3 week period to ensure viability, maximal growth rate, and lack of contamination. On day 1 of the assay, log phase cultures were diluted to 5×10^4 cells/ml in fresh medium and aliquoted to 2 ml vials, which were filled to maintain anaerobic conditions. The berberine was dissolved and diluted in water to various concentrations and then added to the cultures. "negative controls" received the vehicle alone.
(§4) Cultures were incubated at 37° C. with slow rotation. After 48 hours (for T. vaginalis and G. lamblia) and 72 hours (for E. histolytica), cell numbers were determined using a hemocytometer. The concentration of compound inhibiting growth 50% (IC50) relative to controls was estimated from dose response plots. The assays were repeated at least twice.
(§5) Initially, the berberine was tested over a wide range of concentrations (0.1, 1, 10, 100 and 1000 μg/ml).

Assay [1] deals with E. intestinalis. The experiment in a line: In vitro growth (spore numbers) of E. intestinalis in infected Vero cells. Format: cell-based, Encephalitozoon intestinalis.
From the text: as §1
Cultures of E. intestinalis infected African green monkey kidney (Vero) cells were kindly provided by G. S. Visvesvara, CDC, Atlanta, Ga. The E. intestinalis was originally isolated from the urine of an AIDS patient (J. Clin. Microbiol. 33:930-936, 1995).
Cells were grown in T25 flasks at 37° C. in a humidified CO2 incubator, and subcultured when confluent (every 3-4 days). The medium was MEM supplemented with Earle's salts, L-glutamine, 5% heat-inactivated fetal bovine serum, fungizone (2 μg/ml) and gentamicin (50 μg/ml). E. intestinalis spores were prepared by centrifugation of infected cell medium (3-4 days old) at 2000×g for 15 min, followed by suspension in fresh medium to give 1-20×10^4 spores/ml (determined with a hemocytometer). […]
Every 72-96 h after infection, the medium was completely removed, discarded, and replaced with fresh medium plus berberine. The medium from the 4th change (2-3 weeks post infection) was collected into tubes and spore numbers were determined in a hemocytometer. […] Consequently, spore numbers after 3-4 medium changes provided a quantitative measure of the effects of berberine on microsporidia growth.

The test system of another assay is G.lamblia. The experiment in a line: In vitro growth inhibition of Giardia lamblia. The following applies: Giardia duodenalis; for activity at 30 µg/mL / activity at 62 µg/mL / activity at 125 µg/mL / activity at 250 µg/mL / activity at 500 µg/mL / activity at 1000 µg/mL: 48 h; for activity at 30 µg/mL: 30 μg/ml; for activity at 62 µg/mL: 62 μg/ml; for activity at 125 µg/mL: 125 μg/ml; for activity at 250 µg/mL: 250 μg/ml; for activity at 500 µg/mL: 500 μg/ml; for activity at 1000 µg/mL: 1000 μg/ml. The format is cell-based.
From the text: as §1, §2, §3, §4, §5

In a further assay the test system is T.vaginalis. The experiment in a line: In vitro growth inhibition of Trichomonas vaginalis. Format: cell-based. The following applies: for activity at 30 µg/mL / activity at 62 µg/mL / activity at 125 µg/mL / activity at 250 µg/mL / activity at 500 µg/mL / activity at 1000 µg/mL: 48 h; for activity at 30 µg/mL: 30 μg/ml; for activity at 62 µg/mL: 62 μg/ml; for activity at 125 µg/mL: 125 μg/ml; for activity at 250 µg/mL: 250 μg/ml; for activity at 500 µg/mL: 500 μg/ml.
From the text: as §1, §2, §3, §4, §5

The test system of the next assay is Cryptosporidium parvum. The following applies: in vivo; cited from earlier work.
The test system of a further assay is Enterocytozoon bieneusi. The following applies: cited from earlier work.
Assay [2] relates to E. intestinalis. The following applies: cited from earlier work.
The subject of a further assay is E. bieneusi. The following applies: cited from earlier work.
For another assay, the system named is microsporidiosis. The following applies: cited from earlier work.
The next assay deals with microsporidia. The following applies: some AIDS patients; cited from earlier work.
Where [3] appears, read: growth, 48 hours, estimated from dose response plots.

Where two headings read alike, the source gives them in different places.

A word on the IC50: it is the concentration needed to halve the response being measured. `COc1ccc2cc3[n+](cc2c1OC)CCc1cc2c(cc1-3)OCO2.Cl` [berberine hydrochloride, 5,6-Dihydro-9,10-dimethoxybenzo[g]-1,3-benzodioxolo[5,6-a]quinolizinium hydrochloride]: the activity at 30 µg/mL in the assay with E.histolytica (72 h, Exp. 1) was 102%; with E.histolytica (72 h, Exp. 2), 101%; with G.lamblia (Exp. 1), 99%; with G.lamblia (Exp. 2) it was 97%; in the assay with T.vaginalis (Exp. 1) it was 93%; in the assay on T.vaginalis (Exp. 2) it was 99%. Moreover, the activity at 30 µg/mL with T.vaginalis (Exp. 3) is 96%. The activity at 62 µg/mL in the assay with E.histolytica (72 h, 62 μg/ml, Exp. 2) stood at 90%; in the assay with G.lamblia (Exp. 1), 89%; in the assay with G.lamblia (Exp. 2) it was 85%; in the assay with G.lamblia (Exp. 3), 88%; in the assay with T.vaginalis (Exp. 1), 90%; with T.vaginalis (Exp. 2), 98%. Besides, in the assay with T.vaginalis (Exp. 3), the activity at 62 µg/mL worked out at 98%. Also, the activity at 125 µg/mL in the assay on E.histolytica (72 h, Exp. 1) came to 100%; in the assay on E.histolytica (72 h, Exp. 2), 101%; with G.lamblia (Exp. 1), 79%; in the assay on G.lamblia (Exp. 2), 69%; in the assay with G.lamblia (Exp. 3) it was 75%; in the assay on T.vaginalis (Exp. 1), 59%. Further, the activity at 125 µg/mL in the assay with T.vaginalis (Exp. 2) and with T.vaginalis (Exp. 3) was 60% each time. Moreover, the activity at 250 µg/mL came out at 101% with E.histolytica (72 h, 250 μg/ml, Exp. 2); 63% with G.lamblia (Exp. 1); 59% with G.lamblia (Exp. 2); 52% in the assay with G.lamblia (Exp. 3); 20% with T.vaginalis (Exp. 1); 28% in the assay on T.vaginalis (Exp. 2). In the assay with T.vaginalis (Exp. 3), the activity at 250 µg/mL was found to be 45%. Also, the activity at 500 µg/mL amounted to 100% in the assay with E.histolytica (72 h, Exp. 1); 96% in the assay with E.histolytica (72 h, Exp. 2); 40% with G.lamblia (Exp. 1); 44% in the assay on G.lamblia (Exp. 2); 32% in the assay on G.lamblia (Exp. 3); 2% with T.vaginalis (Exp. 1). Besides, the values for the activity at 500 µg/mL with T.vaginalis (Exp. 2) and in the assay with T.vaginalis (Exp. 3) were 3% and 22%, respectively. Moreover, the activity at 1000 µg/mL stood at 72% with E.histolytica (72 h, Exp. 1); 76% in the assay with E.histolytica (72 h, Exp. 2); 9% in the assay on G.lamblia (Exp. 1); 20% in the assay on G.lamblia (Exp. 2); 5% with G.lamblia (Exp. 3); 1% in the assay on T.vaginalis (1000 μg/ml, Exp. 1, read-out: % growth). Besides, the activity at 1000 µg/mL in the assay on T.vaginalis (1000 μg/ml, Exp. 2, read-out: % growth) came out at 1%; in the assay on T.vaginalis (read-out: % growth, 1000 μg/ml, Exp. 3) it was 6.8%. Further, the IC50 in the assay on E.histolytica (growth, 72 hours, estimated from dose response plots) is more than 1000 µg/mL; in the assay with G.lamblia (setting [3]), 350 µg/mL; with T.vaginalis (setting [3]) it was 170 µg/mL. Also, the “activity against the microsporidium E. intestinalis” value in the assay on E. intestinalis [1] was “showed activity against the microsporidium E. intestinalis”.
Take `NC[C@@H]1O[C@H](O[C@H]2[C@@H](O)[C@H](O[C@@H]3[C@@H](O)[C@H](N)C[C@H](N)[C@H]3O[C@H]3O[C@H](CO)[C@@H](O)[C@H](O)[C@H]3N)O[C@@H]2CO)[C@H](N)[C@@H](O)[C@@H]1O` [paromomycin]: in the assay with Cryptosporidium parvum, the “relapse after cessation of treatment” value is given as “common”.
As to `CCCSc1ccc2nc(NC(=O)OC)[nH]c2c1` [albendazole], the “reduction in parasite load” value with Enterocytozoon bieneusi (after oral treatment) is on record as “no significant reduction in parasite load”. In the assay with Enterocytozoon bieneusi (human, in vivo), the “changes in the parasite” value was “degenerative changes in the parasite”, the “patients relapsed within one month” value is reported as “Four of five patients relapsed within one month” and the “relapse of the fifth patient” value was “the fifth patient relapsed within two months”. Further, the “resolution of chronic diarrhea” value with Enterocytozoon bieneusi (six AIDS patients) is on record as “effective in resolving the chronic diarrhea of six AIDS patients”. Further, the “clearing E. intestinalis from the stools” value in the assay on E. intestinalis [2] (five AIDS patients) is “initially effective in clearing E. intestinalis from the stools”. Besides, in the assay on E. intestinalis [2] (followed for more than one month), the “patients with spores of E. intestinalis again detected in stools” value was “two of four patients”. In the assay with E. intestinalis [2] (human, in vivo), the duration of relief result is “relief was only temporary” and the “relapse during maintenance therapy” value is “Relapse occurred in one patient”. Further, in the assay on E. bieneusi (following treatment), the “E. bieneusi spores in small bowel biopsies” value is listed as “spores were still present”. For the same molecule, the “symptoms and parasite burden” value in the assay with E. bieneusi (some of 29 patients) is “improved symptoms and reduced the parasite burden in some of their 29 patients”. In the assay with microsporidiosis (18 AIDS patients), the remission of diarrhea is 70%. Besides, the “arrest of parasite development” value in the assay with microsporidiosis (human, in vivo) was “did not completely arrest development”. Besides, in the assay on microsporidiosis (interfering with tubulin polymerization), the “rate of parasite reproduction” value is “slow the rate of parasite reproduction”. Moreover, the parasite load result in the assay with microsporidiosis (patients who responded) is on record as “reduction in parasite load in those patients who responded”. Also, the relief of diarrhea result in the assay with microsporidia is on record as “temporarily relieve the diarrhea of some AIDS patients”.
